Laboratory results published in patent US10357485B1, “Anti-cancer compound” (KING SAUD UNIVERSITY, priority 2018, dated 2019).
Read-outs that look alike come from different tables or passages of the source.

Tests used:
Type in all cases: cell-based, human
JURKAT cells [1] = assay: MTT cytotoxicity assay on JURKAT cells; settings: for IC50: Homo sapiens, JURKAT cells
Procedure: As described in detail herein, a cytotoxicity assay of compound 4 was performed on four human cancer cell lines—JURKAT, NCI-H460, HCT116 and MCF7—with camptothecin (CPT) as a positive control. The inhibitory effects of compound 4 on JURKAT, NCI-H460, HCT116 and MCF7 cancer cells were determined by an MTT (3-[4,5-dimethylthiazol-2-yl]-2,5 diphenyltetrazolium bromide) assay. The cancer cells were exposed to compound 4 at various concentrations of 1, 5, 10, 15, and 20 μM for different incubation periods of 24 h and 48 h. […] The stock solutions of 1 mM compound 4 and camptothecin (40 μM) were prepared, respectively, in DMSO. Further dilutions of 1, 5, 10, 15, and 20 μM were made in Dulbecco's Modified Eagle's Medium (DMEM) for treatment of cancer cells. MCF-7 (human breast cancer); HCT116 (human colon cancer); NCI-H460 (human non-small lung cancer); and JURKAT (human T-cell lymphoma) cell lines were obtained from the National Centre for Cell Science (NCCS, Pune, India). All cells were cultured in DMEM—except JURKAT cells, which were cultured in RPMI media—and supplemented with 10% fetal bovine serum (HiMedia, India) with penicillin (100 I.U/mL) and streptomycin (100 μg/mL) at 37° C. in a humidified atmosphere of 5% CO2 in air. Cultured cells of 75-85% confluency were used for the assays. Adherent cells were trypsinized, counted and seeded in 96-well plates for viability studies. Cells were allowed to adhere overnight before treatment in the experiments. JURKAT cells were washed with D-PBS, counted and seeded in 96-well plates for viability studies. Cytotoxicity of compound 4 for JURKAT cells was determined by 3-(4,5-dimethylthiazol-2-yl)-2,5-diphenyltetrazolium bromide (MTT) assay. In brief, cells were seeded with different concentrations of compound 4—specifically 1, 5, 10, 15, and 20 μM—in 96 wells plate at a density of 20000 cells per well and incubated for 24 h and 48 h at 37° C., in a CO2 incubator. The MTT assay was performed according to manufacturer instructions and absorbance of the treated and untreated cells were measured in a microplate reader at 570 nm wavelength. Results were represented as percentage of viability={[A570 (treated cells)−background]/[A570 (untreated cells)−background]}×100. Each treatment was performed in triplicate (N=3).

JURKAT cells [2] = assay: FITC Annexin V/PI apoptosis assay by flow cytometry; settings: 48 h of treatment, compound 4 at 10.33 μM
Procedure: To determine whether the antiproliferative effect of compound 4 can trigger cell apoptosis, the percentage of JURKAT cells undergoing apoptosis was determined by flow cytometric analysis after the cells were stained with FITC Annexin V and proidium iodide (PI). […] As depicted in FIGS. 6A-6G, after 48 h of treatment with compound 4, a significant accumulation of AnnexinV^+ was observed, relative to CTP treated cells. 45.21% and 12.54% of cells were determined to be in early apoptosis (AnnexinV^+) when treated with compound 4 and CTP, respectively. Similarly, 46.32% and 14.33% of cells were determined to be in late apoptosis (AnnexinV^+, PI^+) when treated with compound 4 and CTP, respectively. Apoptosis assay was performed using FITC Annexin V Apoptosis Detection Kit I (BD Biosciences, San Jose, Calif., USA). The fluorescence intensities of FITC-conjugated Annexin V and PI in compound 4 treated, control treated and untreated cells were analyzed using flow cytometry. Briefly, JURKAT cells (1×10^6 cells/well) were seeded in a 6-well plate. […] Following trypsinization, cells were centrifuged at 1000×g for 10 min, and the pellet was gently resuspended in 100 μL FITC Annexin V binding buffer and then incubated with 5 μL of FITC Annexin V in the dark for 10 min at 25° C. The cells were then centrifuged at 2000 rpm for 5 min, gently resuspended in 500 μL of FITC Annexin V binding buffer and 5 μL of PI was added in an ice bath, followed by flow cytometry (BD FACS Calibur, San Jose, Calif., USA) the apoptotic cells were analyzed using Cell Quest software.

NCI-H460 cells = assay: MTT cytotoxicity assay on NCI-H460 cells; settings: NCI-H460, 1-20 μM, 24 and 48 hours
Procedure: (§1) As described in detail herein, a cytotoxicity assay of compound 4 was performed on four human cancer cell lines—JURKAT, NCI-H460, HCT116 and MCF7—with camptothecin (CPT) as a positive control. The inhibitory effects of compound 4 on JURKAT, NCI-H460, HCT116 and MCF7 cancer cells were determined by an MTT (3-[4,5-dimethylthiazol-2-yl]-2,5 diphenyltetrazolium bromide) assay. The cancer cells were exposed to compound 4 at various concentrations of 1, 5, 10, 15, and 20 μM for different incubation periods of 24 h and 48 h. […] The stock solutions of 1 mM compound 4 and camptothecin (40 μM) were prepared, respectively, in DMSO. Further dilutions of 1, 5, 10, 15, and 20 μM were made in Dulbecco's Modified Eagle's Medium (DMEM) for treatment of cancer cells. […] Adherent cells were trypsinized, counted and seeded in 96-well plates for viability studies. […] JURKAT cells were washed with D-PBS, counted and seeded in 96-well plates for viability studies. Cytotoxicity of compound 4 for JURKAT cells was determined by 3-(4,5-dimethylthiazol-2-yl)-2,5-diphenyltetrazolium bromide (MTT) assay. […] The MTT assay was performed according to manufacturer instructions and absorbance of the treated and untreated cells were measured in a microplate reader at 570 nm wavelength. […]

JURKAT cells [3] = assay: Mitochondrial membrane potential (ΔΨm) assay, JC-1 staining; settings: 48 h, 10.33 μM
Procedure: Mitochondrial membrane depolarization is an early event in apoptosis. Chemotherapeutic agents usually induce apoptosis via the mitochondrial pathway. Evaluation of the effect of compound 4 treatment on mitochondrial membrane depolarization was determined using flow cytometry after staining with mitochondrial potential-sensitive dye JC-1. […] Mitochondrial membrane potential (ΔΨm) was determined using JC-1, a fluorescent carbocyanine dye (Smiley et al., 1991). Briefly, JURKAT cells (1×10^6 cells/well) were seeded in a 6-well plate. […] Each of the cell pellets were incubated with 2.5 μM JC-1 for 15 min at 37° C. in darkness. Subsequently, stained cells were washed with PBS, followed by FACS analysis (BD FACS Calibur, San Jose, Calif., USA).

JURKAT cells [4] = assay: Cell cycle analysis, propidium iodide staining, flow cytometry; settings: 48 h, 10.33 μM
Procedure: Therefore, interruption of cell cycle progression is an important target for cancer treatment. JURKAT cells were treated with compound 4 for 48 h and stained with propidium iodide to determine the proportion of cells undergoing apoptosis or cell death as analyzed by flow cytometry. […] The percentage of compound 4-treated cells decreased in G0/G1 and G2/M phase. […] Checkpoints are the pathways that halt progression of the cell cycle in response to cellular stress. Targeting checkpoint pathways are potential anti-cancer strategies because abrogation of checkpoint function drives tumor cells toward apoptosis and enhances the efficacy of oncotherapy. The cell cycle phase evaluation was performed as described by […] et al. (2007). Jurkat cells were plated at 1×10^6 cells/well in a six-well plate for 12 h and then cells were exposed with compound-4 in serum-free media and incubated for an additional 48 h. […] Following trypsinization, cells were centrifuged at 1000×g for 10 min, and the pellet was resuspended in PBS. Fixation was completed by adding 70% cold ethanol for at least 2 h. The fixed cells were centrifuged at 1000 g for 10 min, and the pellet suspended in PBS. After 60 s, the cells were centrifuged as before, and the pellet resuspended in 1 ml of propidium iodide (PI) staining solution. Immediately after 15 min incubation at 37° C., the cells were analyzed to determine the cell cycle stage using flow cytometry (BD FACS Calibur, San Jose, Calif., USA) with an excitation wavelength of 488 nm and an emission at 670 nm using the Cell Quest software for analysis. The data presented represent at least three independent experiments conducted in triplicate (N=3).

JURKAT cells [5] = assay: DNA fragmentation by TUNEL assay; settings: 48 h, 10.33 μM
Excerpt: DNA fragmentation is a key feature of apoptosis, and is largely due to activation of endogenous endonucleases that induce cleavage of chromatin DNA into internucleosomal fragments of roughly 180 base pairs. Apoptosis can be qualitatively assessed by monitoring DNA fragmentation trends, for instance, using terminal deoxynucleotidyl transferase dUTP nick end labeling (TUNEL) assay. For untreated […] cells, TUNEL assay results indicated a constant base line of TUNEL-positive cells. […] DNA fragmentation was monitored in treated, control treated and untreated JURKAT cells to identify stages of apoptosis. […] Supernatant and adherent cells were collected in a centrifuge tube and then washed twice with PBS. The cells were fixed with 70% ice-cold ethanol by incubating at -20° C. for 30 min. The fixed cells were resuspended in wash buffer, and then washed twice by centrifugation. 50 μl of DNA labeling solution was added to each cell pellet. The cell pellets were incubated with the DNA labeling solution at 37° C. for 60 min. The cell pellets were rinsed with rinse buffer and then resuspended with 0.5 ml of PI/RNase Staining Buffer and incubated for 30 min at RT. Flow cytometry was performed to detect DNA fragmentation (BD FACS Calibur, San Jose, Calif., USA).

MCF7 cells = assay: MTT cytotoxicity assay on MCF7 cells; settings: MCF7, 1-20 μM, 24 and 48 hours
Procedure: as §1

HCT116 cells = assay: MTT cytotoxicity assay on HCT116 cells; settings: HCT116, 1-20 μM, 24 and 48 hours
Procedure: as §1

[6] = system: Caspase-3 in JURKAT cells; assay: Caspase-3 expression assay, FITC staining, flow cytometry; settings: 48 h, 10.33 μM, CPT 40 μM
Procedure: Caspase-3 expression was measured using FITC staining. […] Apoptotic caspases are believed to be activated in a protease cascade in which the activated apical caspases responding to apoptotic stimuli directly activate the executioner (effector) caspases in a precisely controlled process. Among these effector caspases, caspase-3, a member of the cysteine protease family, plays a central role in the execution phase of both intrinsic (mitochondrial) and extrinsic (death receptor) pathways of apoptosis by cleaving many key cellular proteins, such as poly (ADP ribose) polymerase (PARP), inhibitor of caspase-activated DNase (ICAD), and several others. Briefly, JURKAT cells (1×10^6 cells/well) were seeded in a 6-well plate. […] The JURKAT cells were harvested and then fixed with 70% ice-cold ethanol followed by incubation at −20° C. for 30 min. The fixed JURKAT cells were washed twice with PBS and treated with 20 μl of Caspase-3-FITC (BD Biosciences) and incubated for 60 min at room temperature in dark conditions. Cells were washed with PBS and resuspended in 0.5 ml of PBS, before analysis for Caspase-3 expression using BD FACS Callibur (San Jose, Calif., USA).

Compound | IC50 (JURKAT cells [1]; given as treatment concentration, time not stated, read-out: IC50 of CPT as stated in the methods) [µM] | cells in early apoptosis (AnnexinV+) (JURKAT cells [2]) [%] | cells in late apoptosis (AnnexinV+, PI+) (JURKAT cells [2]) [%] | Proliferation of the cancer cells (NCI-H460 cells) | mitochondrial membrane potential (ΔΨm) compared to control (untreated) cells (JURKAT cells [3]) | percentage of cells in G0/G1 phase (JURKAT cells [4]) | percentage of cells in G2/M phase (JURKAT cells [4]) | percentage of cells in S phase compared to untreated cells (JURKAT cells [4]) | percentage of cells in sub G0/G1 phase compared to untreated cells (JURKAT cells [4]) | number of TUNEL-positive cells compared with untreated or control cells (JURKAT cells [5]) | DNA fragmentation relative to CTP (control) treated cells (JURKAT cells [5]; CPT 40 μM) | IC50 (JURKAT cells [1]; MTT, 24 h, read-out: IC50 (half maximal inhibitory concentration)) [µM] | IC50 (JURKAT cells [1]; MTT, 48 h, read-out: IC50 (half maximal inhibitory concentration)) [µM] | Proliferation of the cancer cells (JURKAT cells [1]; JURKAT, 1-20 μM, 24 and 48 hours) | Inhibition compared to positive control CPT (40 μM) (JURKAT cells [1]; compound 4 at 15 μM and 20 μM) | Proliferation of the cancer cells (MCF7 cells) | Proliferation of the cancer cells (HCT116 cells) | caspase-3 expression compared with CPT control treated cells [6]
CC[C@@]1(O)C(=O)OCc2c1cc1n(c2=O)Cc2cc3ccccc3nc2-1 [CPT, camptothecin, reference compound] | 40 | 12.54 | 14.33 |  |  |  |  |  |  |  |  |  |  |  |  |  |  | 
O=C1/C(=C/c2ccc(Br)cc2)CN2CC13C(c1ccc(Br)cc1)C1Cc4ccccc4CN1C31c3cccc4cccc(c34)[C@@]21O (some centres unmarked) [compound 4] |  | 45.21 | 46.32 | significantly inhibited in a concentration-dependent manner | Significant decrease | decreased | decreased | significantly increased | moderately increased | significant increase | increased DNA fragmentation | 15.6 | 10.3 | significantly inhibited in a concentration-dependent manner | higher inhibition | significantly inhibited in a concentration-dependent manner | significantly inhibited in a concentration-dependent manner | higher caspase-3 expression
